Experimental data reported in patent publication US9303019B2, “Amino-pyrroline derivatives, and use thereof in the prevention and/or treatment of metabolic syndrome” (UNIVERSITE DE STRASBOURG, priority 2012, dated 2016).
pKi: −log10 of the molar value.

Columns and labels:
I1 receptor = I1 receptor (Homo sapiens, UniProt Q9Y2I1); assay: Specific binding assay of the I1 receptor on human platelets with [125I]LNP 911
Procedure: Binding assays were performed at 37° C. using [^125I]LNP 911 as radioligand following the general procedure described but adapted to washed whole platelets (Greney, H.; Urosevic, D.; Schann, S.; Dupuy, L.; Bruban, V.; Ehrhardt, J,-D.; Bousquet, P.; Dontenwill, M. [^125I]2-(2-Chloro-4-iodo-phenylamino)-5-methyl-pyrroline (LNP911), a High-Affinity Radioligand Selective for I1 Imidazoline Receptors. Mol. Pharmacol. 2002, 62, 181-191).
Incubation was initiated through the addition of 900 to 950 μl of platelet suspension at a concentration of 500000/μl in a final volume of 1 ml Tyrode albumin and was performed at 37° C. for 5 min (equilibrium conditions). The competitive assays were conducted using a single concentration of radioligand ([…], 200 000 cpm), in the presence of increasing concentrations of suitable non-labelled ligand. Non-specific binding was determined by the binding of [^125I]LNP 911 in the presence of 100 nM of non-labelled LNP 911 and represented about 10% of total radioactivity when […] of [^125I]LNP 911 were used.
The reaction was halted by rapid vacuum filtration through GF/C fibre glass filters followed by five rapid washings of the filters with 3 ml of ice-cold Tyrode ([…], pH 7.35). Radioactivity was measured using a gamma counter (Wallac 1410).
The competitive assays were analyzed by non-linear regression using the GraphPad programme.
Ki values were determined using the method described by Cheng and Prussof (Cheng, Y. C.; Prusoff, W. H. Relationship between the Inhibition Constant (Ki) and the Concentration of Inhibitor which causes 50 percent Inhibition (I50) of an Enzymatic Reaction. Biochem. Pharmacol. 1973, 22, 3099-3108).

Sprague-Dawley rats = assay: Acute i.v. treatment: renal sympathetic nerve activity and hemodynamic parameters in anesthetized rats; format: in vivo, rat; settings: 10 mg/kg i.v.
Procedure: Male Sprague-Dawley rats (10 weeks; Laboratoires Charles River, L'Arbresle, France) were anesthetized with urethane (1.5 g/kg i.p., supplemented with 0.1 g/kg i.v. if necessary) and placed on a hot blanket to maintain rectal temperature at 37° C.
The left renal nerve was carefully isolated and a major branch of the nerve was placed on a bipolar platinum-iridium electrode insulated with silicone gel (604A and B; Wacker Chemie, Munich, Germany). Throughout the experiment the rat was ventilated by means of a tracheal cannula (7-8 ml/kg×72 cycles/min) with a mixture of oxygen and air (˜8%-20%).
Arterial pressure was measured by connecting the arterial catheter to a pressure transducer (TNF-R; Ohmeda, Bilthoven, Holland) coupled to an amplifier (model 13-4615-52; Gould, Cleveland, Ohio).
Renal sympathetic nerve activity (RSNA) was amplified (×50,000), the pass-band filtered (300-3000 Hz; Model P-511J; Grass, Quincy, Mass.) and rectified with a home-built analogue rectifier including a low frequency filter with a cut-off frequency of 150 Hz.
The 2 parameters were continuously recorded using a computer equipped with an analogue-digital converter (model AT-MIO-16; National Instruments, Austin, Tex.) and LabVIEW 5.1 software (National Instruments).
Arterial pressure and RSNA were recorded before (baseline) and after administering compound 1 (10 mg/kg, i.v.). At the end of the recording session, chlorisondamine, a ganglionic blocker, was administered (2.5 mg/kg, i.v.) to evaluate the level of background noise which was then subtracted from all RSNA data for subsequent analyses. At the end of the experiment, the rats were euthanized with an intravenous overdose of sodium pentobarbital.

SHHF rats [1] = assay: Chronic treatment: arterial pressure and heart rate in SHHF rats; format: in vivo, rat; settings: 20 mg/kg/d in drinking water, 12 weeks
Procedure: (§1) Male SHHF rats (spontaneously hypertensive, heart failure) aged 12 weeks were used for this study (Charles River breeding centre, L'Arbresle, France).
The animals were placed in a room with controlled temperature and light, had free access to tap water and were fed a standard diet (A04, SAFE, Augy, France). This study was conducted in agreement with institutional recommendations and the rules laid down by the European Community for the use of experimental animals (L358-86/609/EEC).
(§2) Compound 1 was administered in the drinking water for 12 weeks at a dose of 20 mg/kg/d (n=17). Water consumption was regularly measured to adjust the concentration of compound 1. Non-treated control SHHF rats had access to normal water (n=10).
Body weight, water and food intake were measured every day. […] Three days later, arterial pressure and heart rate were recorded and a glucose tolerance test was performed.
The rats were anesthetized with pentobarbital 50 mg/kg, i.p. (Céa santé animale, Libourne, France) and tracheotomized. […] Arterial pressure was recorded after stabilization with a pressure transducer (Gould P23XL) and recorder (Gould Electronics BS 272, Longjumeau, France). Mean arterial pressure (MAP) was calculated as diastolic pressure plus one third of differential arterial pressure. Heart rate was also recorded from the pressure signal using a Gould Biotach amplifier (model 13-4615-66).

SHHF rats [2] = assay: Chronic treatment: glucose tolerance test (IVGTT) in SHHF rats; format: in vivo, rat; settings: 20 mg/kg/d, 12 weeks; glucose 0.5 g/kg i.v.; control 710±37
Procedure: At the end of treatment, the SHHF rats were anesthetized with sodium pentobarbital (50 mg/kg i.p.) after a fasting time of 18 h. The left femoral vein was catheterized to take blood samples for the different dosages. To perform the glucose tolerance test a solution of glucose (0.5 g/kg, i.v.) was administered and the plasma concentrations of glucose were determined after 3, 6, 10, 15, 30 and 45 minutes.
as §1, §2
A glucose solution of 0.5 g/kg was administered via intravenous route. The plasma concentration of glucose was evaluated using a glucometer before injection into animals that had fasted 18 h, and then 3, 6, 10, 15, 30 and 45 min after administration of the glucose (Accu Check Go, Roche Diagnostics, Meylan, France). Area under curve values (AUC) were then determined to compare the groups.

Sequence of I1 receptor (Q9Y2I1 2-1504 limits assumed): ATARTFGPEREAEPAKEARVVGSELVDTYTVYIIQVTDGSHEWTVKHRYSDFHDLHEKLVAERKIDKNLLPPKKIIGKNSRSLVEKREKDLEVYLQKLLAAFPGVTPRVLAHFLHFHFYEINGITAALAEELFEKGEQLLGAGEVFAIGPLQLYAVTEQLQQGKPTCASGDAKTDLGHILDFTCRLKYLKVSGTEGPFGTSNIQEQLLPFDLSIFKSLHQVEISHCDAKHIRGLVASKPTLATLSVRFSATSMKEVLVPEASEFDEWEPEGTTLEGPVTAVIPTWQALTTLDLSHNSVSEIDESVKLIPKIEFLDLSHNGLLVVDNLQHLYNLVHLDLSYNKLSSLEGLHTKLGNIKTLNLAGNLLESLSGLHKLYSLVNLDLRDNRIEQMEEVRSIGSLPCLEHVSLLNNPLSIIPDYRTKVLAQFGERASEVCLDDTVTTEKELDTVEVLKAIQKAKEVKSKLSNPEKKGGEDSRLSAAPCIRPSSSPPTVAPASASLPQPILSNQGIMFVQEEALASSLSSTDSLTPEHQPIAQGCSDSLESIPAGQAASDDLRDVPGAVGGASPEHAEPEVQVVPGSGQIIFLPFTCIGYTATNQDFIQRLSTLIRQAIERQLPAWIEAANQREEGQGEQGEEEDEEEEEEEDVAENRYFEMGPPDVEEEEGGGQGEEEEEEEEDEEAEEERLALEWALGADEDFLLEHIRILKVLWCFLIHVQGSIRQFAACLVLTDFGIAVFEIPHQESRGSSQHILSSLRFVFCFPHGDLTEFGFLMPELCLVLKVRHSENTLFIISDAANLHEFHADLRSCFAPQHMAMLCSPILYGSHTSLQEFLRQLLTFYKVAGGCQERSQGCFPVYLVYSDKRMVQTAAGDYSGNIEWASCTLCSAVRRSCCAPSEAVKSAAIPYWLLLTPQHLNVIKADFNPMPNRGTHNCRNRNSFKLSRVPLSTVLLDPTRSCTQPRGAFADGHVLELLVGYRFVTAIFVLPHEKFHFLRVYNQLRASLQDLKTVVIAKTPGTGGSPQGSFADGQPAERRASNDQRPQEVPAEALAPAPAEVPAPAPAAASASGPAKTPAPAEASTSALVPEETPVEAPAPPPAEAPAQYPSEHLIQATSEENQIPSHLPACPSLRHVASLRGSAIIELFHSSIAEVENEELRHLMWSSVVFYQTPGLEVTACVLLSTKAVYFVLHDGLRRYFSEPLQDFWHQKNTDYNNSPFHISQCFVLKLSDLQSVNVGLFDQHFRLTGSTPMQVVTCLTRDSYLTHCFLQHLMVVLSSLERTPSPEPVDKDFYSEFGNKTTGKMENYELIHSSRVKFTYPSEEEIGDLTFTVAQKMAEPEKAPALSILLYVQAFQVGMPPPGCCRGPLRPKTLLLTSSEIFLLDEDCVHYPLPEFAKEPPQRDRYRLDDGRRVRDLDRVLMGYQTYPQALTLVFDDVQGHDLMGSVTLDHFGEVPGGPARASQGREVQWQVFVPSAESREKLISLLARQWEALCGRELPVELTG

Cc1c(Cl)cccc1NC1=NCC(C)C1.Cl (stereo not shown) [Compound 1, (3-Chloro-2-methyl-phenyl)-(4-methyl-4,5-dihydro-3H-pyrrol-2-yl)-amine hydrochloride]
pKi (I1 receptor): 8.09
duration of the reduction in renal sympathetic activity, arterial pressure and heart rate (Sprague-Dawley rats): more than one hour
reduction in renal sympathetic activity (Sprague-Dawley rats; urethane-anesthetized rats): 50%
diastolic arterial pressure (DAP) (Sprague-Dawley rats; vs. 83.2±4 baseline): 58.6±3.4 mmHg
mean arterial pressure (MAP) (Sprague-Dawley rats; vs. 108.±3.4 baseline): 77.4±3.6 mmHg
systolic arterial pressure (SAP) (Sprague-Dawley rats; vs. 141.7±2.3 baseline): 105.3±3 mmHg
heart rate (Sprague-Dawley rats; vs. 331.4±14 baseline): 288.4±10.3 bpm
arterial pressure (SHHF rats [1]; control 176±6): 153±7 mmHg
heart rate (SHHF rats [1]; control 361±8): 367±6 bpm
AUC after the glucose tolerance test (SHHF rats [2]): 556 ± 20 mmol·min/L
